Values joined by “and” are separate entries in the source; they are usually repeats but may differ in a detail not shown here. Equal entries are not always repeated.
Settings: Fluid (supercritical or subcritical phases), Coaxial cylinder method

FCC(F)(F)F [1,1,1,2-tetrafluoroethane]
Settings | thermal conductivity
379.09 K, 4452 kPa | 0.0625 W/m/K
379.09 K, 4460 kPa | 0.0627 W/m/K
379.09 K, 4464 kPa | 0.063 W/m/K
379.09 K, 4470 kPa | 0.063 W/m/K
379.09 K, 4475 kPa | 0.063 W/m/K
379.09 K, 4484 kPa | 0.063 W/m/K
379.09 K, 4500 kPa | 0.0627 W/m/K
379.1 K, 4331 kPa | 0.0441 W/m/K
379.17 K, 300 kPa | 0.02023 W/m/K
379.22 K, 4504 kPa | 0.0628 W/m/K
379.23 K, 4452 kPa | 0.0608 W/m/K
379.23 K, 4453 kPa | 0.0614 W/m/K
379.23 K, 4520 kPa | 0.062 W/m/K
379.23 K, 4530 kPa | 0.0615 W/m/K
379.24 K, 4540 kPa | 0.0609 W/m/K
379.24 K, 4547 kPa | 0.0606 W/m/K
379.24 K, 4560 kPa | 0.0601 W/m/K
379.24 K, 4570 kPa | 0.0599 W/m/K
379.25 K, 4442 kPa | 0.0593 W/m/K
379.25 K, 4600 kPa | 0.0591 W/m/K
379.25 K, 4620 kPa | 0.0587 W/m/K
379.25 K, 4642 kPa | 0.0584 W/m/K
379.26 K, 4431 kPa | 0.0573 W/m/K
379.26 K, 4662 kPa | 0.0579 W/m/K
379.26 K, 4680 kPa | 0.0577 W/m/K
379.26 K, 4703 kPa | 0.0575 W/m/K
379.26 K, 4739 kPa | 0.0573 W/m/K
379.26 K, 4766 kPa | 0.0573 W/m/K
379.26 K, 4806 kPa | 0.057 W/m/K
379.27 K, 4424 kPa | 0.0559 W/m/K
379.28 K, 4414 kPa | 0.0545 W/m/K
379.29 K, 4404 kPa | 0.053 W/m/K
379.3 K, 4396 kPa | 0.0516 W/m/K
379.32 K, 4386 kPa | 0.0501 W/m/K
379.33 K, 4376 kPa | 0.0487 W/m/K
379.34 K, 4369 kPa | 0.0478 W/m/K
379.36 K, 4355 kPa | 0.0462 W/m/K
379.37 K, 4346 kPa | 0.0453 W/m/K
379.39 K, 4330 kPa | 0.0437 W/m/K
379.4 K, 4309 kPa | 0.0422 W/m/K
379.4 K, 4317 kPa | 0.0427 W/m/K
379.4 K, 4838 kPa | 0.0567 W/m/K
379.4 K, 4888 kPa | 0.0562 W/m/K
379.41 K, 4932 kPa | 0.0558 W/m/K
379.41 K, 5000 kPa | 0.0554 W/m/K
379.41 K, 5051 kPa | 0.055 W/m/K
379.42 K, 4288 kPa | 0.0408 W/m/K
379.43 K, 150 kPa | 0.02035 W/m/K
379.43 K, 154 kPa | 0.0231 W/m/K
379.43 K, 4282 kPa | 0.0405 W/m/K
379.45 K, 4254 kPa | 0.0389 W/m/K
379.47 K, 4224 kPa | 0.0376 W/m/K
379.48 K, 4200 kPa | 0.0367 W/m/K
379.5 K, 4165 kPa | 0.0355 W/m/K
379.5 K, 4175 kPa | 0.0358 W/m/K
379.72 K, 160 kPa | 0.01996 W/m/K
381.53 K, 4627 kPa | 0.0551 W/m/K
381.53 K, 4640 kPa | 0.0555 W/m/K
381.53 K, 4650 kPa | 0.056 W/m/K
381.53 K, 4660 kPa | 0.0562 W/m/K
381.53 K, 4670 kPa | 0.0565 W/m/K
381.53 K, 4680 kPa | 0.0565 W/m/K
381.54 K, 4700 kPa | 0.0562 W/m/K
381.54 K, 4760 kPa | 0.056 W/m/K
381.55 K, 4612 kPa | 0.0542 W/m/K
381.55 K, 4780 kPa | 0.0558 W/m/K
381.55 K, 4800 kPa | 0.0555 W/m/K
381.55 K, 4815 kPa | 0.0553 W/m/K
381.56 K, 4600 kPa | 0.0536 W/m/K
381.56 K, 4830 kPa | 0.0551 W/m/K
381.56 K, 4860 kPa | 0.0549 W/m/K
381.56 K, 4900 kPa | 0.0542 W/m/K
381.56 K, 4920 kPa | 0.0542 W/m/K
381.56 K, 4950 kPa | 0.0543 W/m/K
381.56 K, 4982 kPa | 0.0543 W/m/K
381.56 K, 5016 kPa | 0.0543 W/m/K
381.56 K, 5068 kPa | 0.0543 W/m/K
381.57 K, 5092 kPa | 0.0539 W/m/K
381.57 K, 5125 kPa | 0.0538 W/m/K
381.57 K, 5136 kPa | 0.0538 W/m/K
381.57 K, 5169 kPa | 0.0536 W/m/K
381.57 K, 5201 kPa | 0.0536 W/m/K
381.58 K, 4569 kPa | 0.0518 W/m/K
381.6 K, 4530 kPa | 0.0495 W/m/K
381.61 K, 4516 kPa | 0.0483 W/m/K
381.61 K, 4520 kPa | 0.0487 W/m/K
381.61 K, 4525 kPa | 0.049 W/m/K
381.62 K, 4510 kPa | 0.0478 W/m/K
381.63 K, 4490 kPa | 0.0464 W/m/K
381.63 K, 4500 kPa | 0.0472 W/m/K and 0.0468 W/m/K
385.18 K, 4940 kPa | 0.0522 W/m/K

Reference: the NIST ThermoML archive (doi:10.1021/je900210h)
